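Where inhibition never reached the appropriate level, the endpoint shown equals the highest concentration tested. Otherwise, values were interpolated linearly from a five-concentration, 48-hour dose response in 96-well plates. GI50: concentration for 50% inhibition of growth.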 Active and inactive are the calls of the source. Rule as the data show it: active = GI50 up to about 1.1 µM and inactive = higher.
Columns and labels:
Assay in all cases: NCI-60 cell line screen, 48 h
[1] = test system: EKVX
[2] = test system: KM12
[3] = test system: SK-MEL-5
[4] = test system: UO-31
[5] = test system: DMS-114
[6] = test system: ACHN
[7] = test system: SK-MEL-28
[8] = test system: HOP-92
[9] = test system: NCI-H23
[10] = test system: OVCAR-4
[11] = test system: SF-295
[12] = test system: RXF 631
[13] = test system: SF-268
[14] = test system: XF498
[15] = test system: A549
[16] = test system: U-251
[17] = test system: SK-MEL-2
[18] = test system: LOX IMVI
[19] = test system: LXFL 529
[20] = test system: K562
[21] = test system: CCRF-CEM
[22] = test system: DMS-273
[23] = test system: NCI-H226
[24] = test system: SW-620
[25] = test system: SNB-78
[26] = test system: HT-29
[27] = test system: HL-60
[28] = test system: SK-OV-3
[29] = test system: SNB-19
[30] = test system: KM-20L2
[31] = test system: MOLT-4
[32] = test system: SN12C
[33] = test system: 786-0
[34] = test system: HOP-62
[35] = test system: SR
[36] = test system: SF-539
[37] = test system: RXF 393
[38] = test system: CAKI-1
[39] = test system: DLD-1
[40] = test system: UACC-257
[41] = test system: Malme-3M
[42] = test system: TK-10
[43] = test system: OVCAR-5
[44] = test system: A498
[45] = test system: M19-MEL
[46] = test system: OVCAR-8
[47] = test system: NCI-H460
[48] = test system: IGROV-1
[49] = test system: HOP-18
[50] = test system: NCI-H522
[51] = test system: COLO 205
[52] = test system: SNB-75
[53] = test system: OVCAR-3
[54] = test system: M14
[55] = test system: HCT-116
[56] = test system: UACC-62
[57] = test system: RPMI-8226
[58] = test system: HCT-15
[59] = test system: HCC 2998

COc1cc2ccc(CC#N)cc2cc1OC
GI50 [1]: 83.8 µM (inactive) | GI50 [2]: > 100 µM (inactive) | GI50 [3]: 62.1 µM (inactive) | GI50 [4]: > 100 µM (inactive) | GI50 [5]: > 100 µM (inactive) | GI50 [6]: > 100 µM (inactive) | GI50 [7]: > 100 µM (inactive) | GI50 [8]: 71.1 µM (inactive) | GI50 [9]: > 100 µM (inactive) | GI50 [10]: 93.5 µM (inactive) | GI50 [11]: > 100 µM (inactive) | GI50 [12]: > 100 µM (inactive) | GI50 [13]: > 100 µM (inactive) | GI50 [14]: > 100 µM (inactive) | GI50 [15]: > 100 µM (inactive) | GI50 [16]: > 100 µM (inactive) | GI50 [17]: > 100 µM (inactive) | GI50 [18]: > 100 µM (inactive) | GI50 [19]: > 100 µM (inactive) | GI50 [20]: > 100 µM (inactive) | GI50 [21]: > 100 µM (inactive) | GI50 [22]: > 100 µM (inactive) | GI50 [23]: > 100 µM (inactive) | GI50 [24]: > 100 µM (inactive) | GI50 [25]: > 100 µM (inactive) | GI50 [26]: > 100 µM (inactive) | GI50 [27]: > 100 µM (inactive) | GI50 [28]: > 100 µM (inactive) | GI50 [29]: > 100 µM (inactive) | GI50 [30]: > 100 µM (inactive) | GI50 [31]: > 100 µM (inactive) | GI50 [32]: > 100 µM (inactive) | GI50 [33]: > 100 µM (inactive) | GI50 [34]: > 100 µM (inactive) | GI50 [35]: > 100 µM (inactive) | GI50 [36]: > 100 µM (inactive) | GI50 [37]: > 100 µM (inactive) | GI50 [38]: 45.9 µM (inactive) | GI50 [39]: > 100 µM (inactive) | GI50 [40]: > 100 µM (inactive) | GI50 [41]: > 100 µM (inactive) | GI50 [42]: > 100 µM (inactive) | GI50 [43]: > 100 µM (inactive) | GI50 [44]: > 100 µM (inactive) | GI50 [45]: > 100 µM (inactive) | GI50 [46]: > 100 µM (inactive) | GI50 [47]: > 100 µM (inactive)

CCOC(OCC)c1ccc(/C=C/c2cc(OC)c(OC)c(OC)c2)cc1
GI50 [48]: 32.7 µM (inactive) | GI50 [1]: 33 µM (inactive) | GI50 [2]: > 10 µM (inactive) | GI50 [3]: 15.2 µM (inactive) | GI50 [4]: 15.1 µM (inactive) | GI50 [5]: 20.7 µM (inactive) | GI50 [6]: 37.8 µM (inactive) | GI50 [7]: 21 µM (inactive) | GI50 [8]: 21.8 µM (inactive) | GI50 [10]: 22.3 µM (inactive) | GI50 [11]: 19.2 µM (inactive) | GI50 [12]: 20 µM (inactive) | GI50 [13]: 23.1 µM (inactive) | GI50 [15]: 27.7 µM (inactive) | GI50 [16]: 16.3 µM (inactive) | GI50 [49]: 61.4 µM (inactive) | GI50 [18]: 11.1 µM (inactive) | GI50 [19]: 16.1 µM (inactive) | GI50 [20]: 17.1 µM (inactive) | GI50 [21]: 12.9 µM (inactive) | GI50 [22]: 17.6 µM (inactive) | GI50 [23]: 30.4 µM (inactive) | GI50 [24]: 22.7 µM (inactive) | GI50 [50]: 25.2 µM (inactive) | GI50 [25]: 27 µM (inactive) | GI50 [26]: 16.9 µM (inactive) | GI50 [51]: 18.7 µM (inactive) | GI50 [27]: 11.7 µM (inactive) | GI50 [52]: 19.5 µM (inactive) | GI50 [53]: 18 µM (inactive) | GI50 [29]: 29 µM (inactive) | GI50 [54]: 17.7 µM (inactive) | GI50 [55]: 17 µM (inactive) | GI50 [30]: 18.7 µM (inactive) | GI50 [32]: 18.9 µM (inactive) | GI50 [33]: 23.3 µM (inactive) | GI50 [34]: 19.8 µM (inactive) | GI50 [36]: 15.8 µM (inactive) | GI50 [37]: 19.8 µM (inactive) | GI50 [38]: 24.9 µM (inactive) | GI50 [39]: 16.1 µM (inactive) | GI50 [40]: 20.2 µM (inactive) | GI50 [41]: 17.1 µM (inactive) | GI50 [56]: 16.4 µM (inactive) | GI50 [42]: 33.4 µM (inactive) | GI50 [43]: 11.4 µM (inactive) | GI50 [57]: 17.1 µM (inactive) | GI50 [58]: 15.9 µM | GI50 [44]: 18.8 µM (inactive) | GI50 [45]: 19.9 µM (inactive) | GI50 [46]: 26.9 µM (inactive) | GI50 [47]: 19.1 µM (inactive)

O=C1OCC2C1C1c3ccccc3C(O)c3ccccc3C21 (stereo not given)
GI50 [48]: > 100 µM (inactive) | GI50 [1]: > 100 µM (inactive) | GI50 [2]: > 100 µM (inactive) | GI50 [3]: > 100 µM (inactive) | GI50 [4]: > 100 µM (inactive) | GI50 [5]: > 100 µM (inactive) | GI50 [6]: > 100 µM (inactive) | GI50 [7]: > 100 µM (inactive) | GI50 [8]: > 100 µM (inactive) | GI50 [9]: > 100 µM (inactive) | GI50 [10]: > 100 µM (inactive) | GI50 [59]: > 100 µM (inactive) | GI50 [11]: > 100 µM (inactive) | GI50 [12]: > 100 µM (inactive) | GI50 [13]: > 100 µM (inactive) | GI50 [14]: > 100 µM (inactive) | GI50 [15]: > 100 µM (inactive) | GI50 [16]: > 100 µM (inactive) | GI50 [17]: > 100 µM (inactive) | GI50 [49]: > 100 µM (inactive) | GI50 [18]: > 100 µM (inactive) | GI50 [19]: > 100 µM (inactive) | GI50 [20]: > 100 µM (inactive) | GI50 [21]: > 100 µM (inactive) | GI50 [23]: > 100 µM (inactive) | GI50 [24]: > 100 µM (inactive) | GI50 [25]: > 100 µM (inactive) | GI50 [26]: > 100 µM (inactive) | GI50 [51]: > 100 µM (inactive) | GI50 [27]: > 100 µM (inactive) | GI50 [52]: > 100 µM (inactive) | GI50 [28]: > 100 µM (inactive) | GI50 [53]: > 100 µM (inactive) | GI50 [54]: > 100 µM (inactive) | GI50 [55]: > 100 µM (inactive) | GI50 [30]: > 100 µM (inactive) | GI50 [31]: > 100 µM (inactive) | GI50 [32]: > 100 µM (inactive) | GI50 [33]: > 100 µM (inactive) | GI50 [34]: > 100 µM (inactive) | GI50 [35]: > 100 µM (inactive) | GI50 [36]: > 100 µM (inactive) | GI50 [37]: > 100 µM (inactive) | GI50 [38]: > 100 µM (inactive) | GI50 [39]: > 100 µM (inactive) | GI50 [40]: > 100 µM (inactive) | GI50 [41]: > 100 µM (inactive) | GI50 [56]: > 100 µM (inactive) | GI50 [42]: > 100 µM (inactive) | GI50 [43]: > 100 µM (inactive) | GI50 [57]: > 100 µM (inactive) | GI50 [58]: > 100 µM | GI50 [44]: > 100 µM (inactive) | GI50 [45]: > 100 µM (inactive) | GI50 [46]: > 100 µM (inactive) | GI50 [47]: > 100 µM (inactive)

— ChEMBL document CHEMBL1201862, “PubChem BioAssay data set” (2004)
